Data taken from patent US4564619A, “Carbostyril derivative” (Otsuka Pharmaceutical Co., Ltd., priority 1982, dated 1986).

Experiments:
[1] = test system: collagen-induced aggregation in rabbit platelets; assay: Inhibition of collagen-induced platelet aggregation in rabbit platelet rich plasma; type: cell-based; settings: Oryctolagus cuniculus, read-out: Inhibition rate of collagen-induced aggregation; for inhibition at 100 µM (stock): Concentration of the test compound solution 10^-4 mole; for inhibition at 10 µM (stock): Concentration of the test compound solution 10^-5 mole
Experimental: (§1) The platelet aggregation inhibitory effect was measured by using a Platelet Aggregation Tracer Model PAT-6M (manufactured by Nikoh Bio-Science Co., Ltd.) by a method according to Kimura, et al., [IGAKU-NO-AYUMI (Progress in Medicine), Vol. 114, No. 9, pp. 718-727, Aug. 30, 1980, and Nature, pp. 927-929, 1962].
(§2) The blood sample used for the test was a 1:9 (by volume) mixture of "3.8%-CITRATE"® (a registered trademark for 3.8%-sodium citrate, manufactured by Green Cross Corp.) and whole blood collected from rabbits. Said sample was subjected to 10-minute centrifugal separation at 1,000 r.p.m. (200xG) to obtain a platelet rich plasma (PRP). The PRP thus obtained was separated, and the remaining blood sample was further subjected to 15-minute centrifugal separation at 3,000 r.p.m. (2,000xG) to obtain a platelet poor plasma (PPP).
(§3) The number of platelets in the PRP was counted by the Brecher-Clonkite Method, and the PRP was diluted with the PPP to prepare a PRP sample with a platelet concentration of 600,000/microliter to prepare for an adenosine diphosphate (ADP)-induced aggregation test, and a collagen-induced aggregation test. 0.2 Milliliter of the PRP sample was added to 2 microliters of a solution of a test compound of predetermined concentration and this mixture was placed in a 37° C. thermostat for one minute. Then 20 microliters of an ADP or collagen solution was added to the mixture. In this test, the ADP solution was prepared by adjustment to a concentration of 7.5×10^-5 M by using Auren-Beronal buffer solution (pH 7.35). Further, the collagen solution was prepared by adjustment to a concentration of 200 micrograms/ml by using collagen reagent of "Holm"® (manufactured by Hormon-Chemie Munchen, GmbH.) which was diluted wih a physiological saline solution.
(§4) The transmittance of the resultant test mixture was determined and the change of transmittance was recorded by using the aggregometer at a stirrer speed of 1,100 r.p.m.
(§5) The platelet aggregation inhibitory effect of the test compound was measured in terms of inhibition rate (%) with respect to the aggregation rate of the controls. The aggregation rate was calculated from the following formula.
(§6) Aggregation rate=[(c-a)/(b-a)]×100
(§7) The percent inhibition is calculated from the following formula.
(§8) Inhibition rate (%)=[(A-B)/A]×100
(§9) The inhibitory effect of the test compounds on collagen-induced aggregation in rabbit platelets is shown in Table 1, similarly such effect on ADP-induced aggregation in rabbit platelets is shown in Table 2.

[2] = test system: ADP-induced aggregation in rabbit platelets; assay: Inhibition of ADP-induced platelet aggregation in rabbit platelet rich plasma; type: cell-based; settings: Oryctolagus cuniculus, read-out: Inhibition rate of ADP-induced aggregation; for inhibition at 100 µM (stock): Concentration of the test compound solution 10^-4 mole; for inhibition at 10 µM (stock): Concentration of the test compound solution 10^-5 mole
Experimental: as §1, §2, §3, §4, §5, §6, §7, §8, §9

[3] = Change of blood pressure, intravenous administration, anesthetized dog; type: in vivo; design: unit not given here; settings: femoral artery
Experimental: (§10) The change of blood flow in coronary artery and the change of blood pressure were measured by a method according to Yakura et al., [Japan Journal of Pharmacology, Vol. 57, pages 380-391 (1961)] and according to Taira, et al. [Clin. Exp. Pharmacol. Physiol., Vol. 6, pages 301-316, (1976)].
(§11) An adult bastard dog of either sex weighing 8-13 kg was anesthetized with sodium pentobarbital at the rate of 30 mg/kg by intraveneous administration, then the dog was fixed in supination and was theracotomized under a condition of forced breathing. After another intraveneous administration of sodium heparin at the rate of 500 U/kg, 100 U/kg per hour, the dog was subjected to the following experiments.
(§12) (2) Intraveneous administration
(§13) Morawitz's cannula was cannulated to the coronary sinus venosus through the auricula dextra cordis, and the blood in vein was circulated to the right carotid. The blood flow was measured by an electromagnetic blood flow meter equipped with a blood flow observation probe in the extracorporeal circulation path of the vein. The systolic force was measured by a systolometer (pick-up) placed at the left ventricle of heart, the blood pressure was measured from the femoral artery, and the heart rate was measured from the pulse. A compound to be tested was administered through the cannula being cannulated in femoral vein. The increased amount of the blood flow in coronary artery after the administration of the test compound is shown in Table 4, also the change of blood pressure is shown in Table 5.

coronary artery = assay: Increased amount of the blood flow in coronary artery, intravenous administration, anesthetized dog; type: in vivo
Experimental: as §10, §11, §12, §13

SMILES	inhibition at 100 µM (stock) [1]	inhibition at 100 µM (stock) [2]	Change of blood pressure ([3]; 10 micrograms/kg)	Change of blood pressure ([3]; 30 micrograms/kg)	Change of blood pressure ([3]; 100 micrograms/kg)	Change of blood pressure ([3]; 300 micrograms/kg)	also measured
COC(=O)C1=C(C)NC(C)=C(C(=O)OCCCCOc2ccc3c(c2)CCC(=O)N3)C1c1ccccc1SC (stereo not shown) [Compound 26, 6-{4-[2,6-Dimethyl-5-methoxycarbonyl-4-(2-methylthiophenyl)-1,4-dihydropyridin-3-carboxy]butoxy}-3,4-dihydrocarbostyril]	100%	87%	-6	-10	-21	-42	inhibition at 10 µM (stock) [1]: 19%; inhibition at 10 µM (stock) [2]: 22%
COC(=O)C1=C(C)NC(C)=C(C(=O)OCCCCOc2ccc3c(c2)CCC(=O)N3)C1c1ccccc1C(=O)OC (stereo not shown) [Compound 30, 6-{4-[2,6-Dimethyl-5-methoxycarbonyl-4-(2-methoxycarbonyl)-1,4-dihydropyridin-3-carboxy]butoxy}-3,4-dihydrocarbostyril]	100%	89%	-1	-16	-38		inhibition at 10 µM (stock) [1]: 3%
CCCOc1ccc(OCCCOC(=O)C2=C(C)NC(C)=C(C(=O)OC)C2c2cccc([N+](=O)[O-])c2)c2c1NC(=O)CC2 (stereo not shown) [Compound 11, 5-{3-[2,6-Dimethyl-5-methoxycarbonyl-4-(3-nitrophenyl)-1,4-dihydropyridin-3-carboxy]-propoxy}-8-propoxy-3,4-dihydrocarbostyril]		11%	-18	-33	-41	-48	Increased amount of the blood flow in coronary artery (coronary artery; 3 micrograms/kg): 7 mL/min; Increased amount of the blood flow in coronary artery (coronary artery; 10 micrograms/kg): 26 mL/min; Increased amount of the blood flow in coronary artery (coronary artery; 30 micrograms/kg): 58 mL/min; Increased amount of the blood flow in coronary artery (coronary artery; 100 micrograms/kg): 56 mL/min; Increased amount of the blood flow in coronary artery (coronary artery; 300 micrograms/kg): 73 mL/min; Change of blood pressure ([3]; 3 micrograms/kg): -5
COC(=O)C1=C(C)NC(C)=C(C(=O)OCC(O)COc2ccc3c(c2)CCC(=O)N3)C1c1cccc([N+](=O)[O-])c1 (stereo not shown) [Compound 39, 6-{3-[2,6-Dimethyl-5-methoxycarbonyl-4-(3-nitrophenyl)-1,4-dihydropyridin-3-carboxy]-2-hydroxypropoxy}-3,4-dihydro-carbostyril]	100%	76%					inhibition at 10 µM (stock) [1]: 19%
C#CCOc1ccc(OCCCOC(=O)C2=C(C)NC(C)=C(C(=O)OC)C2c2cccc([N+](=O)[O-])c2)c2c1NC(=O)CC2 (stereo not shown) [Compound 12, 5-{3-[2,6-Dimethyl-5-methoxycarbonyl-4-(3-nitrophenyl)-1,4-dihydropyridin-3-carboxy]-propoxy}-8-(2-propynyloxy)-3,4-dihydrocarbostyril]		14%	-5	-23	-49		Increased amount of the blood flow in coronary artery (coronary artery; 3 micrograms/kg): 5 mL/min; Increased amount of the blood flow in coronary artery (coronary artery; 10 micrograms/kg): 30 mL/min; Increased amount of the blood flow in coronary artery (coronary artery; 30 micrograms/kg): 74 mL/min; Increased amount of the blood flow in coronary artery (coronary artery; 100 micrograms/kg): 63 mL/min
COC(=O)C1=C(C)NC(C)=C(C(=O)OCCCCOc2ccc3c(c2)CCC(=O)N3)C1c1ccc(Cl)cc1Cl (stereo not shown) [Compound 42, 6-{4-[2,6-Dimethyl-5-methoxycarbonyl-4-(2,4-dichlorophenyl)-1,4-dihydropyridin-3-carboxy]butoxy}-3,4-dihydrocarbostyril]	39%	26%					
COC(=O)C1=C(C)NC(C)=C(C(=O)OCCCCOc2ccc3c(c2)CCC(=O)N3)C1c1cccc([N+](=O)[O-])c1 (stereo not shown) [Compound 16, 6-{4-[2,6-Dimethyl-5-methoxycarbonyl-4-(3-nitrophenyl)-1,4-dihydropyridin-3-carboxy]-butoxy}-3,4-dihydrocarbostyril]			-12	-27		-54	Change of blood pressure ([3]; 3 micrograms/kg): -3
COC(=O)C1=C(C)NC(C)=C(C(=O)OCCCCOc2ccc3c(c2)CCC(=O)N3)C1c1ccc(OC)c(OC)c1 (stereo not shown) [Compound 40, 6-{4-[2,6-Dimethyl-5-methoxycarbonyl-4-(3,4-dimethoxyphenyl)-1,4-dihydropyridin-3-carboxy]butoxy}-3,4-dihydrocarbostyril]	15%	14%					
COC(=O)C1=C(C)NC(C)=C(C(=O)OCCCCOc2ccc3c(c2)CCC(=O)N3)C1c1cc(OC)c(OC)c(OC)c1 (stereo not shown) [Compound 41, 6-{4-[2,6-Dimethyl-5-methoxycarbonyl-4-(3,4,5-trimethoxyphenyl)-1,4-dihydropyridin-3-carboxy]butoxy}-3,4-dihydrocarbostyril]	35%	30%					
COC(=O)C1=C(C)NC(C)=C(C(=O)OCCOc2cccc3c2NC(=O)CC3)C1c1cccc([N+](=O)[O-])c1 (stereo not shown) [Compound 13, 8-{2-[2,6-Dimethyl-5-methoxycarbonyl-4-(3-nitrophenyl)-1,4-dihydropyridin-3-carboxy]-ethoxy}-3,4-dihydrocarbostyril]			-16	-32	-52		Change of blood pressure ([3]; 3 micrograms/kg): -7
COC(=O)C1=C(C)NC(C)=C(C(=O)OCCOc2ccc3c(c2)NC(=O)CC3)C1c1cccc([N+](=O)[O-])c1 (stereo not shown) [Compound 14, 7-{2-[2,6-Dimethyl-5-methoxycarbonyl-4-(3-nitrophenyl)-1,4,-dihydropyridin-3-carboxy]-ethoxy}-3,4-dihydrocarbostyril]				-2	-14	-32	
COC(=O)C1=C(C)NC(C)=C(C(=O)OCCCCOc2ccc3c(c2)CCC(=O)N3)C1c1ccccc1C(F)(F)F (stereo not shown) [Compound 25, 6-{4-[2,6-Dimethyl-5-methoxycarbonyl-4-(2-trifluoromethylphenyl)-1,4-dihydropyridin-3-carboxy]butoxy}-3,4-dihydrocarbostyril]			-34	-46			Change of blood pressure ([3]; 3 micrograms/kg): -9
COC(=O)C1=C(C)NC(C)=C(C(=O)OCCCCOc2cccc3c2CCC(=O)N3)C1c1cccc([N+](=O)[O-])c1 (stereo not shown) [Compound 17, 5-{4-[2,6-Dimethyl-5-methoxycarbonyl-4-(3-nitrophenyl)-1,4-dihydropyridin-3-carboxy]-butoxy}-3,4-dihydrocarbostyril]			-4	-14	-55	-76	
COC(=O)C1=C(C)NC(C)=C(C(=O)OCC(COc2ccc3c(c2)CCC(=O)N3)OC(C)=O)C1c1cccc([N+](=O)[O-])c1 (stereo not shown) [Compound 23, 6-{3-[2,6-Dimethyl-5-methoxycarbonyl-4-(3-nitrophenyl)-1,4-dihydropyridin-3-carboxy]-2-acetoxypropoxy}-3,4-dihydrocarbostyril]	100%	79%					inhibition at 10 µM (stock) [1]: 29%; inhibition at 10 µM (stock) [2]: 29%
